Tests used:
[1] = system: HepG2 (human hepatocellular carcinoma cell line); test: MTT anti-proliferative assay, HepG2; assay type: cell-based; settings: Homo sapiens, HepG2, 48 h incubation, means ± SD, n = 3
From the text: (§1) The anti-proliferative activities against five human cancer cell lines, including HCT116 (human colorectal cancer cell line), MCF-7 (human breast cancer cell line), SW620 (human colorectal cancer cell line), BEL7402 (human hepatocellular carcinoma cell line), and HepG2 (human hepatocellular carcinoma cell line) were established for all the target compounds using the MTT assay.
(§2) The propidium iodide (PI) and Annexin V-FITC apoptosis detection kit were purchased from Invitrogen (Eugene, OR, United States). 3-(4,5-Dimethylthiazol-2-yl)-2,5-diphenyl-2H-tetrazolium bromide (MTT) was purchased from Sigma-Aldrich Co. (St. Louis, MO, United States). All human cell lines were used in this study, colorectal cancer cell HCT116, colorectal cancer cell SW620, breast cancer cell MCF-7, liver hepatocellular carcinoma cell BEL7402, liver hepatocellular carcinoma HepG2 and normal liver cell L02 were initially purchased from American Type Culture Collection (ATCC, Manassas, VA, United States). RPMI-1640 media, Dulbecco’s modified Eagle’s medium (DMEM), and foetal bovine serum (FBS) were provided from Gibco Company (Grand Island, NY, United States). Cell line MCF-7 and HepG2 were cultivated in DMEM containing 10% (v/v) heat-inactivated FBS, 100 units/ml penicillin and […] streptomycin (Grand Island, NY, United States). Cell lines HCT116, BEL7402, SW620, and L02 were cultivated in RPMI 1640 medium containing 10% (v/v) heat-inactivated FBS, 100 units/ml penicillin, and […] streptomycin. The cells were incubated at 37°C under a 5% CO2 and 90% relative humidity (RH) atmosphere.
(§3) Stock solutions were prepared by diluting target compounds in DMSO at concentrations (1.25, 2.5, 5, and 10 mM). The stock solution was then diluted (1.25, 2.5, 5, and 10 μM) with culture medium, and the concentration of DMSO was controlled not to exceed 0.1%.
(§4) Place the cells in a 96-well plate at an appropriate density to ensure exponential growth (1 × 10^4–1.2×10^4 cells per well) throughout the experiment, and then allow the cells to adhere for 24 h. The cells were then treated with continuous concentrations of each compound (1.25, 2.5, 5, and 10 μM) for 48 h. After 48 h of incubation, 15 μl of MTT solution was added to each well, and the final concentration was 2 mg/ml. Then incubate for another 4 h. After incubation, remove the MTT solution and add […] of DMSO to each well for staining. Shake vigorously for 10 min at room temperature to ensure complete dissolution. The optical density (OD) was read on a microplate reader (ELx 800, BioTek, Highland Park, Winooski, VT, United States) with a wavelength of 492 nm, and then the data was analyzed.

[2] = system: HCT116 (human colorectal cancer cell line); test: MTT anti-proliferative assay, HCT116; assay type: cell-based; settings: Homo sapiens, HCT-116, 48 h incubation, means ± SD, n = 3
From the text: as §1, §2, §3, §4

[3] = system: BEL7402 (human hepatocellular carcinoma cell line); test: MTT anti-proliferative assay, BEL7402; assay type: cell-based; settings: Homo sapiens, Bel-7402, 48 h incubation, means ± SD, n = 3
From the text: as §1, §2, §3, §4

[4] = system: MCF-7 (human breast cancer cell line); test: MTT anti-proliferative assay, MCF-7; assay type: cell-based; settings: Homo sapiens, MCF7, 48 h incubation, means ± SD, n = 3
From the text: as §1, §2, §3, §4

[5] = system: SW620 (human colorectal cancer cell line); test: MTT anti-proliferative assay, SW620; assay type: cell-based; settings: Homo sapiens, SW-620, 48 h incubation, means ± SD, n = 3
From the text: as §1, §2, §3, §4

Row | SMILES | IC50 [1] [µM] | IC50 [2] [µM] | IC50 [3] [µM] | IC50 [4] [µM] | IC50 [5] [µM] | melting point [°C]
1 | CC1(C)CC[C@]2(C(=O)OCc3cn(-c4ccccc4)nn3)[C@H](O)C[C@]3(C)C(=CC[C@@H]4[C@@]5(C)CC[C@H](O)[C@@](C)(C=O)[C@@H]5CC[C@]43C)[C@@H]2C1 [Compound A1, (1-phenyl-1H-1,2,3-triazol-4-yl)methyl (4aR,5R,6aS,6bR,8aR,9S,10S,12aR,12bR,14bS)-9-formyl-5,10-dihydroxy-2,2,6a,6b,9,12a-hexamethyl-1,3,4,5,6,6a,6b,7,8,8a,9,10,11,12,12a,12b,13,14b-octadecahydropicene-4a (2H)-carboxylate] | 8.28 ± 2.1 | 3.61 ± 1.01 | > 10 | > 10 | 8.96 ± 1.78 | 186 to 188
2 | CC1(C)CC[C@]2(C(=O)OCc3cn(-c4ccc(F)cc4)nn3)[C@H](O)C[C@]3(C)C(=CC[C@@H]4[C@@]5(C)CC[C@H](O)[C@@](C)(C=O)[C@@H]5CC[C@]43C)[C@@H]2C1 [Compound A2, (1-(4-fluorophenyl)-1H-1,2,3-triazol-4-yl)methyl (4aR,5R,6aS,6bR,8aR,9S,10S,12aR,12bR,14bS)-9-formyl-5,10-dihydroxy-2,2,6a,6b,9,12a-hexamethyl-1,3,4,5,6,6a,6b,7,8,8a,9,10,11,12,12a,12b,13,14b-octadecahydropicene-4a (2H)-carboxylate] | > 10 | 3.04 ± 0.92 | 3.18 ± 1.02 | > 10 | 8.78 ± 1.77 | 171 to 172
3 | CC1(C)CC[C@]2(C(=O)OCc3cn(-c4ccc(Cl)cc4)nn3)[C@H](O)C[C@]3(C)C(=CC[C@@H]4[C@@]5(C)CC[C@H](O)[C@@](C)(C=O)[C@@H]5CC[C@]43C)[C@@H]2C1 [Compound A3, (1-(4-chlorophenyl)-1H-1,2,3-triazol-4-yl)methyl (4aR,5R,6aS,6bR,8aR,9S,10S,12aR,12bR,14bS)-9-formyl-5,10-dihydroxy-2,2,6a,6b,9,12a-hexamethyl-1,3,4,5,6,6a,6b,7,8,8a,9,10,11,12,12a,12b,13,14b-octadecahydropicene-4a (2H)-carboxylate] | > 10 | > 10 | > 10 | > 10 | > 10 | 193 to 194
4 | CC1(C)CC[C@]2(C(=O)OCc3cn(-c4ccc(Cl)c(Cl)c4)nn3)[C@H](O)C[C@]3(C)C(=CC[C@@H]4[C@@]5(C)CC[C@H](O)[C@@](C)(C=O)[C@@H]5CC[C@]43C)[C@@H]2C1 [Compound A4, (1-(3,4-dichlorophenyl)-1H-1,2,3-triazol-4-yl)methyl (4aR,5R,6aS,6bR,8aR,9S,10S,12aR,12bR,14bS)-9-formyl-5,10-dihydroxy-2,2,6a,6b,9,12a-hexamethyl-1,3,4,5,6,6a,6b,7,8,8a,9,10,11,12,12a,12b,13,14b-octadecahydropicene-4a (2H)-carboxylate] | > 10 | > 10 | > 10 | > 10 | > 10 | 205 to 206
5 | CC1(C)CC[C@]2(C(=O)OCc3cn(-c4ccc(Br)cc4)nn3)[C@H](O)C[C@]3(C)C(=CC[C@@H]4[C@@]5(C)CC[C@H](O)[C@@](C)(C=O)[C@@H]5CC[C@]43C)[C@@H]2C1 [Compound A5, (1-(4-bromophenyl)-1H-1,2,3-triazol-4-yl)methyl (4aR,5R,6aS,6bR,8aR,9S,10S,12aR,12bR,14bS)-9-formyl-5,10-dihydroxy-2,2,6a,6b,9,12a-hexamethyl-1,3,4,5,6,6a,6b,7,8,8a,9,10,11,12,12a,12b,13,14b-octadecahydropicene-4a (2H)-carboxylate] | > 10 | > 10 | > 10 | > 10 | > 10 | 190 to 192
6 | COc1ccc(-n2cc(COC(=O)[C@]34CCC(C)(C)C[C@H]3C3=CC[C@@H]5[C@@]6(C)CC[C@H](O)[C@@](C)(C=O)[C@@H]6CC[C@@]5(C)[C@]3(C)C[C@H]4O)nn2)cc1 [Compound A6, (1-(4-methoxyphenyl)-1H-1,2,3-triazol-4-yl)methyl (4aR,5R,6aS,6bR,8aR,9S,10S,12aR,12bR,14bS)-9-formyl-5,10-dihydroxy-2,2,6a,6b,9,12a-hexamethyl-1,3,4,5,6,6a,6b,7,8,8a,9,10,11,12,12a,12b,13,14b-octadecahydropicene-4a (2H)-carboxylate] | > 10 | > 10 | > 10 | > 10 | > 10 | 192 to 193
7 | COc1ccc(-n2cc(COC(=O)[C@]34CCC(C)(C)C[C@H]3C3=CC[C@@H]5[C@@]6(C)CC[C@H](O)[C@@](C)(C=O)[C@@H]6CC[C@@]5(C)[C@]3(C)C[C@H]4O)nn2)cc1OC [Compound A7, (1-(3,4-dimethoxyphenyl)-1H-1,2,3-triazol-4-yl)methyl (4aR,5R,6aS,6bR,8aR,9S,10S,12aR,12bR,14bS)-9-formyl-5,10-dihydroxy-2,2,6a,6b,9,12a-hexamethyl-1,3,4,5,6,6a,6b,7,8,8a,9,10,11,12,12a,12b,13,14b-octadecahydropicene-4a (2H)-carboxylate] | > 10 | > 10 | > 10 | > 10 | > 10 | –
8 | COc1cc(-n2cc(COC(=O)[C@]34CCC(C)(C)C[C@H]3C3=CC[C@@H]5[C@@]6(C)CC[C@H](O)[C@@](C)(C=O)[C@@H]6CC[C@@]5(C)[C@]3(C)C[C@H]4O)nn2)cc(OC)c1OC [Compound A8, (1-(3,4,5-trimethoxyphenyl)-1H-1,2,3-triazol-4-yl)methyl (4aR,5R,6aS,6bR,8aR,9S,10S,12aR,12bR,14bS)-9-formyl-5,10-dihydroxy 2,2,6a,6b,9,12a-hexamethyl-1,3,4,5,6,6a,6b,7,8,8a,9,10,11,12,12a,12b,13,14b octadecahydropicene-4a (2H)-carboxylate] | > 10 | > 10 | > 10 | > 10 | > 10 | –
9 | Cc1ccc(-n2cc(COC(=O)[C@]34CCC(C)(C)C[C@H]3C3=CC[C@@H]5[C@@]6(C)CC[C@H](O)[C@@](C)(C=O)[C@@H]6CC[C@@]5(C)[C@]3(C)C[C@H]4O)nn2)cc1 [Compound A9, (1-(p-tolyl)-1H-1,2,3-triazol-4-yl)methyl (4aR,5R,6aS,6bR,8aR,9S,10S,12aR,12bR,14bS)-9-formyl-5,10-dihydroxy-2,2,6a,6b,9,12a-hexamethyl-1,3,4,5,6,6a,6b,7,8,8a,9,10,11,12,12a,12b,13,14b-octadecahydropicene-4a (2H)-carboxylate] | > 10 | > 10 | > 10 | > 10 | > 10 | 204 to 206
10 | COc1cc(-n2cnn(CCOC(=O)[C@]34CCC(C)(C)C[C@H]3C3=CC[C@@H]5[C@@]6(C)CC[C@H](O)[C@@](C)(C=O)[C@@H]6CC[C@@]5(C)[C@]3(C)C[C@H]4O)c2=O)cc(OC)c1OC [Compound C6, 2-(5-oxo-4-(3,4,5-trimethoxyphenyl)-4,5-dihydro-1H-1,2,4-triazol-1-yl)ethyl (4aR,5R,6aS,6bR,8aR,9S,10S,12aR,12bR,14bS)-9-formyl-5,10-dihydroxy-2,2,6a,6b,9,12a-hexamethyl-1,3,4,5,6,6a,6b,7,8,8a,9,10,11,12,12a,12b,13,14b-octadecahydropicene-4a (2H)-carboxylate] | > 10 | 5.6 ± 1.55 | > 10 | > 10 | 7.35 ± 1.7 | –
11 | CC1(C)CC[C@]2(C(=O)O)[C@H](O)C[C@]3(C)C(=CC[C@@H]4[C@@]5(C)CC[C@H](O)[C@@](C)(C=O)[C@@H]5CC[C@]43C)[C@@H]2C1 [QA, quillaic acid] | > 10 | > 10 | > 10 | > 10 | > 10 | –

— paper PMC9490060, “Synthesis and evaluation of anticancer activity of quillaic acid derivatives: A cell cycle arrest and apoptosis inducer through NF-κB and MAPK pathways” (Frontiers in Chemistry, 2022)
